Data as given in PubChem BioAssay AID248 (DTP/NCI, 2004).
Inconclusive results and toxic doses are left out. Rule as the data show it: active = T/C of 150% or more; inactive = T/C below 125%.

Test system: L1210 leukemia ip in BDF1 mice, survival T/C
Assay: NCI In Vivo Anticancer Drug Screen. Data for tumor model L1210 Leukemia (intraperitoneal) in B6D2F1 (BDF1) mice
Conditions: endpoint: mean survival time, higher = longer survival
Procedure, shortened: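 Each compound was tested against a transplantable tumor grown in mice. The endpoint was survival, with treated animals benchmarked against vehicle controls as a simple ratio.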

[1] = dose: 100.0 mg/kg/injection, schedule: Q01DX009 (ip), vehicle: Klucel (hydroxypropylcellulose) (HPC)

Measured: T/C

CCCC#CC(=O)OCCCCC
inactive: dose: 100.0 mg/kg/injection, schedule: Q04DX002 (ip), vehicle: saline 108 % of control | dose: 200.0 mg/kg/injection, schedule: Q04DX002 (ip), vehicle: saline 94 % of control | dose: 400.0 mg/kg/injection, schedule: Q04DX002 (ip), vehicle: saline 105 % of control

COC(=O)c1ccc(OCCOc2ccc(C(C)(C)CC(C)(C)C)cc2)c(N)c1
inactive: [1] 97 % of control | dose: 200.0 mg/kg/injection, schedule: Q01DX009 (ip), vehicle: Klucel (hydroxypropylcellulose) (HPC) 105 % of control | dose: 400.0 mg/kg/injection, schedule: Q01DX009 (ip), vehicle: Klucel (hydroxypropylcellulose) (HPC) 91 % of control

O=[N+]([O-])c1csc2ccccc12
inactive: dose: 12.5 mg/kg/injection, schedule: Q01DX009 (ip), vehicle: Klucel (hydroxypropylcellulose) (HPC) 97 % of control | dose: 25.0 mg/kg/injection, schedule: Q01DX009 (ip), vehicle: Klucel (hydroxypropylcellulose) (HPC) 90 % of control | dose: 50.0 mg/kg/injection, schedule: Q01DX009 (ip), vehicle: Klucel (hydroxypropylcellulose) (HPC) 90 % of control | [1] 105 % of control
